Molecular target: human MRGPRD (Homo sapiens, UniProt Q8TDS7)
Assay: MRGPRD antagonist activity, IP-One HTRF assay in CHO cells stably expressing human MRGPRD (versus 100 μM β-Alanine agonist)
Format: cell-based
Method in brief: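 Cells (20,000/well, plated overnight) received antagonist and agonist in buffer with 5.7 mM Tris-HCl, 43 mM NaCl and 50 mM LiCl at pH 8. Incubation ran 1 h at 37 °C, then 1 h at room temperature, before IP-1 HTRF detection. IC50 was fitted from the HTRF ratio, and percent antagonism was taken relative to the maximum efficacy response, given as averages with SEM.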

Sequence of human MRGPRD (Q8TDS7 whole entry): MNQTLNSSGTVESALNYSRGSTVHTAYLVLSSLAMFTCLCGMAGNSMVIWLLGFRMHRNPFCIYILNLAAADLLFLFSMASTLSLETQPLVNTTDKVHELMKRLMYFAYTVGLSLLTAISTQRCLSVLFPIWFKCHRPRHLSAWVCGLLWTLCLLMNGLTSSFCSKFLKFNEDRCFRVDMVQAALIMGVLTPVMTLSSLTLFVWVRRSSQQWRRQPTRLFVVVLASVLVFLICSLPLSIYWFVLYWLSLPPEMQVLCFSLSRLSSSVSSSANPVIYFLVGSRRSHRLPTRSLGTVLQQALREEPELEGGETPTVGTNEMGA

SMILES	IC50 [nM]
COc1cccc(-c2nc(C3CCCN(S(=O)(=O)Cc4ccccc4F)C3)n3ccccc23)c1 (stereo not drawn) [Compound 16-5]	> 3000
COc1cccc(-c2nc(C3CCCN(C(=O)Nc4ccccc4F)C3)n3cccc(OC)c23)c1 (stereo not drawn) [Compound 19-1]	> 3000
COc1cccc(-c2nc(C3CCCN(C(=O)Nc4ccccc4F)C3)n3ccc(OC)cc23)c1 (stereo not drawn) [Compound 19-2]	> 3000
COc1cccc(-c2nc([C@H]3CCN(C(=O)Nc4ccccc4F)C3)n3ccccc23)c1 [Compound 21-2]	1000 to 3000
CNC(=O)N1CCC[C@H]1c1nc(-c2cccc(OC)c2)c2ccccn12 [Compound 21-3]	> 3000
CNC(=O)N1CCC[C@@H]1c1nc(-c2cccc(OC)c2)c2ccccn12 [Compound 21-4]	> 3000
COc1cccc(-c2nc([C@@H]3CCCN3C(=O)Nc3ccc(N(C)C)cc3)n3ccccc23)c1 [Compound 21-5]	> 3000
COc1cccc(-c2nc([C@H]3CCCN3C(=O)Nc3ccc(N(C)C)cc3)n3ccccc23)c1 [Compound 21-6]	> 3000
COc1cccc(-c2nc(C3CCCN3C(=O)Nc3ccccc3F)n3ccccc23)c1 (stereo not drawn) [Compound 22-1, N-(2-fluorophenyl)-2-(1-(3-methoxyphenyl)imidazo[1,5-a]pyridin-3-yl)pyrrolidine-1-carboxamide]	1000 to 3000
COc1cccc(-c2nc(C3CN(C(=O)Nc4cccc(N(C)C)c4)C3)n3ccccc23)c1 [Compound 23-1, N-(3-(dimethylamino)phenyl)-3-(1-(3-methoxyphenyl)imidazo[1,5-a]pyridin-3-yl)azetidine-1-carboxamide]	> 3000
COc1cccc(-c2nc(C3CN(C(=O)Nc4ccc(N(C)C)cc4)C3)n3ccccc23)c1 [Compound 23-2]	> 3000
COc1cccc(-c2nc(-c3ccc(C(=O)Nc4ccc(N(C)C)cc4)s3)n3ccccc23)c1 [Compound 25-1, N-(4-(dimethylamino)phenyl)-5-(1-(3-methoxyphenyl)imidazo[1,5-a]pyridin-3-yl)thiophene-2-carboxamide]	1000 to 3000

Now from value to compound:

IC50 [nM]	SMILES
100 to 500	COc1cccc(-c2nc(C3CCCN(S(=O)(=O)Cc4ccc(F)cc4)C3)n3ccccc23)c1 (stereo not drawn) [Compound 16-6]
100 to 500	COc1cccc(-c2nc([C@@H]3CCCN(S(=O)(=O)c4cccc(F)c4)C3)n3ccccc23)c1 [Compound 16-7]
1000 to 3000	COc1cccc(-c2nc([C@H]3CCCN(S(=O)(=O)Cc4ccc(F)cc4)C3)n3ccccc23)c1 [Compound 16-8]
< 100	COc1cccc(-c2nc([C@@H]3CCCN(S(=O)(=O)Cc4ccc(F)cc4)C3)n3ccccc23)c1 [Compound 16-9]
1000 to 3000	COc1cccc(-c2nc([C@H]3CCCN(S(=O)(=O)c4cccc(F)c4)C3)n3ccccc23)c1 [Compound 16-10]
100 to 500	COc1cccc(-c2nc(C3CCCN(C(=O)Nc4ccccc4F)C3)n3cccc(C)c23)c1 (stereo not drawn) [Compound 17-1, N-(2-fluorophenyl)-3-(1-(3-methoxyphenyl)-8-methylimidazo[1,5-a]pyridin-3-yl)piperidine-1-carboxamide]
500 to 1000	COc1cccc(-c2nc(C3CCCN(C(=O)Nc4ccccc4F)C3)n3ccc(C)cc23)c1 (stereo not drawn) [Compound 17-2]
100 to 500	COc1cccc(-c2nc(C3CCCN(C(=O)Nc4ccccc4F)C3)n3c(C)cccc23)c1 (stereo not drawn) [Compound 17-3]
100 to 500	COc1cccc(-c2nc(C3CCCN(C(=O)Nc4ccccc4F)C3)n3cc(C)ccc23)c1 (stereo not drawn) [Compound 18-1, N-(2-fluorophenyl)-3-(1-(3-methoxyphenyl)-6-methylimidazo[1,5-a]pyridin-3-yl)piperidine-1-carboxamide]
1000 to 3000	COc1cccc(-c2nc(C3CCCN(C(=O)Nc4ccccc4F)C3)n3cc(OC)ccc23)c1 (stereo not drawn) [Compound 19-3, N-(2-fluorophenyl)-3-(6-methoxy-1-(3-methoxyphenyl)imidazo[1,5-a]pyridin-3-yl)piperidine-1-carboxamide]
< 100	COc1cccc(-c2nn([C@@H]3CCCN(C(=O)Nc4ccc(N(C)C)cc4)C3)c3ncccc23)c1 [Compound 20-1, (R)—N-(4-(dimethylamino)phenyl)-3-(3-(3-methoxyphenyl)-1H-pyrazolo[3,4-b]pyridin-1-yl)piperidine-1-carboxamide]
< 100	COc1cccc(-c2nn([C@@H]3CCCN(C(=O)Nc4cccc(N(C)C)c4)C3)c3ncccc23)c1 [Compound 20-2]
1000 to 3000	COc1cccc(-c2nn([C@H]3CCCN(C(=O)Nc4cccc(N(C)C)c4)C3)c3ncccc23)c1 [Compound 20-3]
1000 to 3000	COc1cccc(-c2nn([C@H]3CCCN(C(=O)Nc4ccc(N(C)C)cc4)C3)c3ncccc23)c1 [Compound 20-4]
500 to 1000	COc1cccc(-c2nc([C@@H]3CCN(C(=O)Nc4ccccc4F)C3)n3ccccc23)c1 [Compound 21-1, (R)—N-(2-fluorophenyl)-3-(1-(3-methoxyphenyl)imidazo[1,5-a]pyridin-3-yl)pyrrolidine-1-carboxamide]
100 to 500	COc1cccc(-c2nn(-c3cccc(C(=O)Nc4ccc(N(C)C)cc4)c3)c3ncccc23)c1 [Compound 24-1, N-(4-(dimethylamino)phenyl)-3-(3-(3-methoxyphenyl)-1H-pyrazolo[3,4-b]pyridin-1-yl)benzamide]
500 to 1000	COc1cccc(-c2nn(-c3cccc(C(=O)Nc4cccc(N(C)C)c4)c3)c3ncccc23)c1 [Compound 24-2]
< 100	COc1cccc(-c2nc(C3CCCN(C(=O)Nc4ccc(N(C)C)cc4)C3)c3ccccn23)c1 (stereo not drawn) [Compound 26-1, N-(4-(dimethylamino)phenyl)-3-(3-(3-methoxyphenyl)imidazo[1,5-a]pyridin-1-yl)piperidine-1-carboxamide]

Reference: US20240246980A1, “MODULATORS OF MAS-RELATED G-PROTEIN RECEPTOR D AND RELATED PRODUCTS AND METHODS” (Escient Pharmaceuticals, Inc., priority 2022, published 2024)
